Experiments:
Helicobacter pylori = experiment: Activity against Helicobacter pylori, agar method of Iwahi et al. (MIC 50); assay type: cell-based; settings: Columbia agar (Oxoid), growth period of 4 days, approximate values; for MIC50: Helicobacter pylori, 96 h, read-out: Appr. MIC 50
Description: The compounds of the formula I were investigated with respect to their activity against Helicobacter pylori following the method described by Tomoyuki Iwahi et al. (Antimicrobial Agents and Chemotherapy, 1991, 490-496) using Columbia agar (Oxoid) and a growth period of 4 days.

SMILES	Appr. MIC 50 (Helicobacter pylori)	MIC50 (Helicobacter pylori) [µg/mL]	melting point [°C]
Cc1nc(C)c(Cl)c(NCc2nccc(SCCCCN3CCN(Cc4ccncc4)CC3)c2C)n1 [Compound 12, (5-Chloro-2,6-dimethylpyrimidin-4-yl)-{3-methyl-4-[4-(4-pyridin-4-ylmethylpiparazin-1-yl)butylsulfanyl]pyridin-2-ylmethyl}amine]	≦0.1 μg/ml		
Cc1nc(C)c(Cl)c(NCc2nccc(OCCSCc3ccncc3)c2C)n1 [Compound 30, (5-Chloro-2,6-dimethyl-pyrimidin-4-yl)-{3-methyl-4-[2-(pyridin-4-ylmethylsulfanyl)-ethoxy]-pyridin-2-ylmethyl}-amine]		≤ 0.1	140 to 142
Cc1nc(C)c(Cl)c(NCc2nccc(SCCOCCSCc3ccccn3)c2C)n1 [Compound 53, (5-Chloro-2,6-dimethyl-pyrimidin-4-yl)-(3-methyl-4-{2-[2-(pyridin-2-ylmethylsulfanyl)-ethoxy]ethylsulfanyl}-pyridin-2-ylmethyl)-amine]		≤ 0.1	70 to 72
Cc1nc(C)c(Cl)c(NCc2nccc(OCCOCCSCc3ccncc3)c2C)n1 [Compound 29, (5-Chloro-2,6-dimethyl-pyrimidin-4-yl)-(3-methyl-4-{2-[2-(pyridin-4-ylmethylsulfanyl)-ethoxy]-ethoxy}-pyridin-2-ylmethyl)-amine]		≤ 0.1	103 to 105
Cc1nc(C)c(Cl)c(NCc2nccc(SCCCSCC3CCCN(C)C3)c2C)n1 (stereo not shown) [Compound 22, (5-Chloro-2,6-dimethylpyrimidin-4-yl)-{3-methyl-4-[3-(1-methylpiperidin-3-ylmethylsulfanyl)propylsulfanyl]pyridin-2-ylmethyl}amine]		≤ 0.1	92 to 94
Cc1nc(C)c(Cl)c(NCc2nccc(OCCCSCc3ccncc3)c2C)n1 [Compound 34, (5-Chloro-2,6-dimethyl-pyrimidin-4-yl)-{3-methyl-4-[3-(pyridin-4-ylmethylsulfanyl)-propoxy]-pyridin-2-ylmethyl}-amine]		≤ 0.1	111 to 113
Cc1nc(C)c(Cl)c(NCc2nccc(OCCOCCSCCO)c2C)n1 [Compound 35, 2-[2-(2-{2-[(5-Chloro-2,6-dimethyl-pyrimidin-4-ylamino)-methyl]-3-methyl-pyridin-4-yloxy}-ethoxy)-ethylsulfanyl]-ethanol]		≤ 0.1	114 to 116
Cc1nc(C)c(Cl)c(NCc2nccc(SCCCSCCO[C@@H]3O[C@H](CO)[C@@H](O)[C@H](O)[C@H]3O)c2C)n1 [Compound 39, 2-(3-{2-[(5-Chloro-2,6-dimethyl-pyrimidin-4-ylamino)-methyl]-3-methyl-pyridin-4-ylsulfanyl}-propylsulfanyl)-β-D-glucopyranoside]	≦0.1 μg/ml		
Cc1nc(C)c(Cl)c(NCc2nccc(SCCCN3CCN(Cc4ccncc4)CC3)c2C)n1.Cl [Compound 23, (5-Chloro-2,6-dimethylpyrimidin-4-yl)-{3-methyl-4-[3-(4-pyridin-4-ylmethylpiperazin-1-yl)propylsulfanyl]pyridin-2-ylmethyl}amine hydrochloride]		≤ 0.1	166 to 168
Cc1nc(C)c(Cl)c(NCCCSc2ccnc(CNc3nc(C)nc(C)c3Cl)c2C)n1 [Compound 7, {4-[3-(5-Chloro-2,6-dimethylpyrimidin-4-ylamino)propylsulfanyl]-3-methylpyridin-2-yl-methyl}-(5-chloro-2,6-dimethylpyrimidin-4-yl)amine]		≤ 0.1	
Cc1nc(C)c(Cl)c(NCc2nccc(SCCCSCc3ccncc3)c2C)n1 [Compound 24, (5-Chloro-2,6-dimethylpyrimidin-4-yl)-{3-methyl-4-[3-(pyridin-4-ylmethylsulfanyl)propylsulfanyl]pyridin-2-ylmethyl}amine]		≤ 0.1	124 to 125
Cc1c(OCCSCCn2c([N+](=O)[O-])cnc2C)ccnc1CNc1ncncc1Cl [Compound 49, (5-Chloro-pyrimidin-4-yl)-(3-methyl-4-{2-[2-(2-methyl-5-nitro-imidazol-1-yl)-ethylsulfanyl]-ethoxy}-pyridin-2-ylmethyl)-amine]		≤ 0.1	145 to 147
Cc1nc(C)c(Cl)c(NCc2nccc(SCc3ccco3)c2C)n1 [Compound 60, (5-Chloro-2,6-dimethyl-pyrimidin-4-yl)-[4-(furan-2-ylmethylsulfanyl)-3-methyl-pyridin-2-ylmethyl]-amine]		≤ 0.1	159 to 160
Cc1nc(C)c(Cl)c(NCc2nccc(SCCOCCSCc3cccnc3)c2C)n1 [Compound 52, (5-Chloro-2,6-dimethyl-pyrimidin-4-yl)-(3-methyl-4-{2-[2-(pyridin-3-ylmethylsulfanyl)-ethoxy]-ethylsulfanyl}-pyridin-2-ylmethyl)-amine]		≤ 0.1	90 to 92
Cc1nc(C)c(Cl)c(NCc2nccc(N(C)CCCSCCn3c([N+](=O)[O-])cnc3C)c2Cl)n1 [Compound 18, (5-Chloro-2,6-dimethylpyrimidin-4-yl)-[3-chloro-4-(methyl-{3-[2-(2-methyl-5nitroimidazol-1-yl)ethylsulfanyl]propyl}amino)pyridin-2-ylmethyl]amine]		≤ 0.1	123 to 126
Cc1nc(C)c(Cl)c(NCc2nccc(SCCCSCCO)c2C)n1 [Compound 31, 2-(3-{2-[(5-Chloro-2,6-dimethyl-pyrimidin-4-ylamino)-methyl]-3-methyl-pyridin-4-ylsulfanyl}-propylsulfanyl)-ethanol]		≤ 0.1	134 to 137
Cc1nc(C)c(Cl)c(NCc2nccc(SCCOCCOCCSCc3ccncc3)c2C)n1 [Compound 43, (5-Chloro-2,6-dimethyl-pyrimidin-4-yl)-[3-methyl-4-(2-{2-[2-(pyridin-4-ylmethylsulfanyl)-ethoxy]-ethoxy}-ethylsulfanyl)-pyridin-2-ylmethyl]-amine]		≤ 0.1	84 to 86
Cc1nc(C)c(Cl)c(NCc2nccc(SCCCSCCn3c([N+](=O)[O-])cnc3C)c2C)n1 [Compound 27, (5-Chloro-2,6-dimethylpyrimidin-4-yl)-(3-methyl-4-{3-[2-(2-methyl-5-nitroimidazol-1-yl)-ethylsulfanyl]propylsulfanyl}pyridin-2-ylmethyl)amine]		≤ 0.1	145 to 147
Cc1nc(C)c(Cl)c(NCc2nccc(OCCCCSCCn3c([N+](=O)[O-])cnc3C)c2C)n1 [Compound 16, (5-Chloro-2,6-dimethylpyrimidin-4-yl)-(3-methyl-4-{4-[2-(2-methyl-5-nitroimidazol-1-yl)-ethylsulfanyl]butoxy}pyridin-2-ylmethyl]amine]		≤ 0.1	114 to 117
Cc1nc(C)c(Cl)c(NCc2nccc(OCCCSCCn3c([N+](=O)[O-])cnc3C)c2C)n1 [Compound 33, (5-Chloro-2,6-dimethyl-pyrimidin-4-yl)-(3-methyl-4-{3-[2-(2-methyl-5-nitro-imidazol-1-yl)-ethylsulfanyl]-propoxy}-pyridin-2-ylmethyl)-amine]		≤ 0.1	169 to 171
Cc1nc(C)c(Cl)c(NCc2nccc(OCCCCN3CCNCC3)c2C)n1 [Compound 14, (5-Chloro-2,6-dimethylpyrimidin-4-yl)-[3-methyl-4-(4-piperazin-1-ylbutoxy)pyridin-2-ylmethyl]amine]			140 to 144
Cc1c(OCCCSCCn2c([N+](=O)[O-])cnc2C)ccnc1CNc1ncncc1Cl [Compound 56, (5-Chloro-pyrimidin-4-yl)-(3-methyl-4-{3-[2-(2-methyl-5-nitro-imidazol-1-yl)-ethylsulfanyl]-propoxy}-pyridin-2-ylmethyl)-amine]		≤ 0.1	143 to 146
Cc1c(SCCCSCCn2c([N+](=O)[O-])cnc2C)ccnc1CNc1ncncc1Cl [Compound 9, (5-Chloropyrimidin-4-yl)-(3-methyl-4-{3-[2-(2-methyl-5-nitroimidazol-1-yl)ethylsulfanyl]propylsulfanyl}-pyridin-2-ylmethyl)amine]		≤ 0.1	119 to 121
Cc1nc(C)c(Cl)c(NCc2nccc(SCCCSc3ncc(-c4ccccc4)[nH]3)c2C)n1.Cl			188 to 190
Cc1nc(C)c(Cl)c(NCc2nccc(OCCCCSCc3ccncc3)c2C)n1 [Compound 15, (5-Chloro-2,6-dimethylpyrimidin-4-yl)-{3-methyl-4-[4-(piridin-4-ylmethylsulfanyl)-butoxy]pyridin-2-ylmethyl}amine]	≦0.1 μg/ml		
Cc1nc(C)c(Cl)c(NCc2nccc(N(C)CCN3CCc4ccccc4C3)c2Cl)n1 [Compound 1, (3-Chloro-4-{[2-(3,4-dihydro-1H-isoquinolin-2-yl)ethyl]methylamino}pyridin-2-ylmethyl)-(5-chloro-2,6-dimethylpyrimidin-4-yl)amine]			81 to 93
Cc1nc(C)c(Cl)c(NCc2nccc(OCCCCSCc3cccnc3)c2C)n1 [Compound 50]	≦0.1 μg/ml		
Cc1nc(C)c(Cl)c(NCc2nccc(OCCCCN3CCN(Cc4ccncc4)CC3)c2C)n1 [Compound 11, (5-Chloro-2,6-dimethylpyrimidin-4-yl)-{3-methyl-4-[4-(4-pyridin-4-ylmethylpiperazin-1-yl)butoxy]pyridin-2-ylmethyl}amine]			157 to 158
Cc1nc(C)c(Cl)c(NCc2nccc(OCCCCSc3ncccn3)c2C)n1 [Compound 6]	≦0.1 μg/ml		
Cc1nc(C)c(Cl)c(NCc2nccc(CNCCO)c2Cl)n1 [Compound 2, 2-({3-Chloro-2-[(5-chloro-2,6-dimethylpyrimidin-4-ylamino)methyl]pyridin-4-yl}methylamino)ethanol]			162 to 165

Source: patent US6395732B1, “Pyrimidin-aminomethyl-pyridine derivatives, their preparation and their use in the control of helicobacter bacteria” (BYK Gulden Lomberg Chemische Fabrik GmbH, priority 1998, dated 2002)
